Where two headings read alike, the source gives them in different places.
Tests used:
[1] = system: endosomal acidification in A549 cells; test: Endosomal acidification, LysoSensor DND-189 flow cytometry; format: cell-based, human; conditions: A549 cells pretreated 12 h; C156-P1 100 nM or 1 µM, Baf-A1 100 nM
V-ATPase = V-ATPase (Homo sapiens, UniProt Q9Y487); test: ATPase activity assay on lysate of treated cells; format: cell-based; conditions: A549 cells treated 24 h; C156-P1 100 nM or 1000 nM, PHY34 100 nM, Baf-A1 100 nM; 2 µg total cell protein
in vitro = conditions: human
DENV-2 [2] = test: microbe, parasite or virus in culture; conditions: Dengue virus, DENV2, A549, 48 h, read-out: EC50 against DENV-2
DENV-2 [3] = system: DENV-2
[4] = system: other Flaviviridae viruses; conditions: cited from earlier work
ATP6V0A2 = ATP6V0A2 mRNA level by RT-qPCR; format: cell-based, human; conditions: A549 cells, 100 nM, 48 h
ZIKV [5] = system: ZIKV; parameters: method as in PMID 29033372, PMID 28694387; conditions: cited from earlier work
ZIKV [6] = conditions: cited from earlier work
DENV-2 [7] = system: DENV-2; parameters: method as in PMID 30125275; conditions: read-out: EC50 against DENV-2 infection; cited from earlier work

V-ATPase, sequence (Q9Y487 whole entry, looked up): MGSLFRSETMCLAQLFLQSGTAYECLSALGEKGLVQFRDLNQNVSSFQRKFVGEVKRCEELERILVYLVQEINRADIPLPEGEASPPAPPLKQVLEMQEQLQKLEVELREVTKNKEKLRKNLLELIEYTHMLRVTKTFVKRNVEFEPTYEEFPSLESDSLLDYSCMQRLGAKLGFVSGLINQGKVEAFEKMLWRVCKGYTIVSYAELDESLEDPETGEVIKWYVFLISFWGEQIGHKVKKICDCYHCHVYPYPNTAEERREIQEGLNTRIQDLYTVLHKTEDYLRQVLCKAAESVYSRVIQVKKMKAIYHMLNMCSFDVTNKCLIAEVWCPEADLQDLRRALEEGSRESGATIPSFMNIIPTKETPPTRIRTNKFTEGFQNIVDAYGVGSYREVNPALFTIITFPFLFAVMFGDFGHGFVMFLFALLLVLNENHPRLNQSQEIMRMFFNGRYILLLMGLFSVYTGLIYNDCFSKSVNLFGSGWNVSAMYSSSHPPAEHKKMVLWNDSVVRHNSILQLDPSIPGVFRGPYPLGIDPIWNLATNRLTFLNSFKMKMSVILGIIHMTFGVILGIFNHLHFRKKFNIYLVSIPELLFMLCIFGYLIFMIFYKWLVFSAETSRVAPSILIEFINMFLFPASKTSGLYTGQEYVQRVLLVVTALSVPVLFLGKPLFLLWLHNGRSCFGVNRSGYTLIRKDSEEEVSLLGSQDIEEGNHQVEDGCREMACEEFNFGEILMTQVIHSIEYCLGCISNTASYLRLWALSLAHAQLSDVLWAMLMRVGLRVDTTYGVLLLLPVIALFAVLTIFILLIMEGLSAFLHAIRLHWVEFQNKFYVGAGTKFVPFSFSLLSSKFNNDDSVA

SMILES: CO/C1=C\C(C)=C\[C@@H](C)[C@@H](O)[C@@H](C)C/C(C)=C/C=C/[C@H](OC)[C@@H]([C@@H](C)[C@@H](O)[C@H](C)[C@@]2(O)C[C@@H](O)[C@H](C)[C@@H](C(C)C)O2)OC1=O [Baf-A1, bafilomycin A1]
- Endosomal acidification (FITC intensity of LysoSensor DND-189) [1]: shifted the peak of FITC leftward
- V-ATPase activity (V-ATPase): significantly reduced V-ATPase activity

SMILES: COc1cc2c(O)c3c(c(-c4ccc5c(c4)OCO5)c2cc1OC)C(=O)OC3 [DP, diphyllin]
- CC50 (in vitro): 16 µM
- EC50 (DENV-2 [2]): 401 nM
- SI (ratio of CC50 to EC50) (DENV-2 [3]; A549 cells, DENV-2): 39.98

SMILES: COc1cc(N[C@H](C(=O)c2c[nH]c3ccc(OC(F)(F)F)cc23)c2ccc(Cl)cc2OC)cc(S(C)(=O)=O)c1 [JNJ-1802]
- Inhibitory effects against other Flaviviridae viruses [4]: lacks inhibitory effects

SMILES: COc1cc2c(O[C@@H]3O[C@H](CO)[C@@H]4OC(C)(C)O[C@@H]4[C@H]3O)c3c(c(-c4ccc5c(c4)OCO5)c2cc1OC)C(=O)OC3 [PHY34, reference compound]
- Endosomal acidification (FITC intensity of LysoSensor DND-189) [1]: inhibited endosomal acidification
- ATP6V0A2 mRNA expression (ATP6V0A2): decrease in ATP6V0A2 mRNA expression
- DENV-2 infection (NS3 protein, Western blot) (DENV-2 [3]; A549 cells, MOI = 2, 48 h, indicated concentrations): inhibited endosomal acidification and DENV-2 infection in a dose-dependent manner
- V-ATPase activity (V-ATPase): significantly reduced V-ATPase activity

SMILES: COc1cc2c(O[C@@H]3O[C@H](C)[C@@H](O)[C@H](O)[C@H]3O)c3c(c(-c4ccc5c(c4)OCO5)c2cc1OC)C(=O)OC3 [PTA, patentiflorin A, reference compound]
- CC50 (in vitro): 0.195 µM
- EC50 (DENV-2 [2]): 38.1 nM
- SI (ratio of CC50 to EC50) (DENV-2 [3]): 5.12

SMILES: CCN(CC)CCCC(C)Nc1ccnc2cc(Cl)ccc12 (centres unmarked) [chloroquine]
- Inhibitory concentration (dose) required in mice against ZIKV (ZIKV [5]): 100 mg/kg
- Inhibitory concentrations necessary for ZIKV infection in cell culture (ZIKV [6]): micromolar range

SMILES: CCN(CCO)CCCC(C)Nc1ccnc2cc(Cl)ccc12 (centres unmarked) [hydroxychloroquine]
- Inhibitory concentration (dose) required in mice against ZIKV (ZIKV [5]): 40 mg/kg

SMILES: O=C(Nc1ccc([N+](=O)[O-])cc1Cl)c1cc(Cl)ccc1O [niclosamide]
- EC50 (DENV-2 [7]): ~10 µM

From PMC12587552, “A nitrogen-containing diphyllin derivative C156-P1 exhibited broad-spectrum antiviral activity against Flaviviridae viruses by preventing endosomal acidification” (Antimicrobial Agents and Chemotherapy, 2025)
